From ChEMBL document CHEMBL1201862, “PubChem BioAssay data set” (2004)
Calls of active or inactive are those of the source.

How the values were obtained:
cells [1] = assay type: functional, cell-based
cells [2] = assay type: functional, cell-based; remark: listed apart in the source
[3] = Trypanosoma cruzi growth suppression in host cells – NIH3T3 host cells, beta-gal luminescence, confirmation (AID 2044); assay type: functional, cell-based;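 also: intracellular parasites grown in NIH/3T3 mouse fibroblasts as host cells; luminescent beta-galactosidase reporter signal from transgenic T. cruzi replicating inside host cells; inhibitors lower the luminescence signal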
[4] = NIH3T3 cell viability loss – ATP luminescence, mouse fibroblasts, counter-screen, dose response (AID 2010); assay type: functional, cell-based;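 also: cells exposed to compound for about 90 hours before reading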
cells [5] = assay: cells
[6] = target: T1, Trace amine-associated receptor 1 (Homo sapiens, UniProt Q96RJ0); assay: Counterscreen for agonists of the human trace amine associated receptor 1 (hTAAR1): Fluorescence-based cell-based high throughput dose response assay to identify hTAAR1 agonist that also desensitize TAAR1 receptor response.; assay type: functional
T1 sequence (Q96RJ0 whole entry): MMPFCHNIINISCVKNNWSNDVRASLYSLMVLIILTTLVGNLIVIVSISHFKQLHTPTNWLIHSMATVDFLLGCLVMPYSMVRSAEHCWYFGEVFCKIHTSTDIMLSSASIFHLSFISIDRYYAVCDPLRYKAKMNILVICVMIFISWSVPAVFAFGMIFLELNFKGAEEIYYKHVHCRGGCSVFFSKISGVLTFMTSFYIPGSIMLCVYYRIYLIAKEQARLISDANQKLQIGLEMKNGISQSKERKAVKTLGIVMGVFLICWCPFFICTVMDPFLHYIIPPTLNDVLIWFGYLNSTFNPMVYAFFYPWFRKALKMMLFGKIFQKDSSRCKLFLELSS

[7] = target: T1, Trace amine-associated receptor 1; assay: Fluorescence-based cell-based high throughput dose response assay to identify agonists of the human trace amine associated receptor 1 (TAAR1).; assay type: functional
[8] = target: T2, Tyrosine-protein phosphatase non-receptor type 7 (Homo sapiens, UniProt P35236); assay: HePTP tyrosine phosphatase activity blockers – biochemical, absorbance, leukemia target, primary screen (AID 521); assay type: functional
T2 sequence (P35236 whole entry): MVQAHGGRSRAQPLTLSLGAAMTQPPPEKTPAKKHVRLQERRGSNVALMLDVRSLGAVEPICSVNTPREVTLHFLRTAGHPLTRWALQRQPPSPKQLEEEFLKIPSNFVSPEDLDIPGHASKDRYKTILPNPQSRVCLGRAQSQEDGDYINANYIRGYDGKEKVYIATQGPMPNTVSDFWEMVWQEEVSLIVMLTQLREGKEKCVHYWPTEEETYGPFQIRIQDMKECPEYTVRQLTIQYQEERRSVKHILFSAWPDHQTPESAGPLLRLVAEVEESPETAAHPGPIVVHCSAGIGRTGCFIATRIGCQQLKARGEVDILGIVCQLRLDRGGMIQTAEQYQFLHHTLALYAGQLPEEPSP

cells [9] = assay type: functional, cell-based; remark: listed apart in the source
cells [10] = assay type: functional, cell-based; remark: listed apart in the source
[11] = target: Mitogen-activated protein kinase 10 (Homo sapiens, UniProt P53779); assay: Dose response biochemical screening assay for inhibitors of c-Jun N-Terminal Kinase 3 (JNK3). [Related pubchem assays: 746 ]
BJ [12] = assay: BJ-TERT-LT-ST fibroblast viability loss – cell-based, RAS-independent, luminescence, dose response (AID 1935); assay type: functional; conditions: Homo sapiens;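 also: BJ fibroblasts immortalized with TERT plus LT and ST oncogenes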
BJ [13] = assay: cells; assay type: functional, cell-based; conditions: Homo sapiens
Vero [14] = assay: cells; assay type: functional; conditions: Chlorocebus sabaeus
Vero [15] = assay: mammalian cell viability reduction – secondary assay, cytotoxicity control for West Nile virus antiviral project, dose response (AID 1650); assay type: functional; conditions: Chlorocebus sabaeus
[16] = DRD fibroblast viability loss – cell-based, non-viral oncogenic, luminescence, dose response (AID 1934); assay type: functional; conditions: Homo sapiens
Vero [17] = assay: cells; assay type: functional, cell-based; conditions: Chlorocebus sabaeus
BJ [18] = assay: BJ-TERT fibroblast viability loss – cell-based, RAS-independent, luminescence, dose response (AID 1933); assay type: functional; conditions: Homo sapiens
[19] = Luminescence Cell-Based Dose Response to Identify Activators of 5'UTR Stem-Loop Driven Prion Protein mRNA Translation in H4-C Neuroglioblastoma Cells. [Related pubchem assays: 1829 (Project Summary), 1814 (Primary HTS)]; assay type: functional
[20] = Luminescence Cell-Based Dose Response to Identify Activators of Luciferase Translation or Activity in H4-C Neuroglioblastoma Cells. [Related pubchem assays: 1829 (Project Summary), 1814 (Primary HTS)]; assay type: functional
[21] = Luminescence Cell-Based Dose Response HTS to Identify Activators of Luciferase Translation or Activity in H4 […] Cells. [Related pubchem assays: 1829 (Project Summary), 1814 (Primary HTS)]; assay type: functional
[22] = Luminescence Cell-Based Dose Confirmation to Identify Activators of 5'UTR Stem-Loop Driven Alpha-Synuclein mRNA Translation in H4 Neuroglioblastoma Cells. [Related pubchem assays: 1829 (Project Summary), 1814 (Primary HTS)]; assay type: functional

Mitogen-activated protein kinase 10, sequence (P53779 whole entry): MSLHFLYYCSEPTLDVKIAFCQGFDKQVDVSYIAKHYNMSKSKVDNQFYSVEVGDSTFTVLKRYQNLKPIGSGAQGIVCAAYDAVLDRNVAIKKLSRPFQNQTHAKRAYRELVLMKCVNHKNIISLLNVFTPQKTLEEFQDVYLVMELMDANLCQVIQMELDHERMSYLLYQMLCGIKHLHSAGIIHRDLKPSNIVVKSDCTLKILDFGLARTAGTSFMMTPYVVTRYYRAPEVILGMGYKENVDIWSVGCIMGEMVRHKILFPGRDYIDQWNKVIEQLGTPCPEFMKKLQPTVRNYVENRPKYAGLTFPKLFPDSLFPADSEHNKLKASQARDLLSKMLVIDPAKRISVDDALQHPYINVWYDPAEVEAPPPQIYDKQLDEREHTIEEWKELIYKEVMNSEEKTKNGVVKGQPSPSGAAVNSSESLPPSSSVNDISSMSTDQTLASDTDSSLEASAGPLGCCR

For `N=C(N)N/N=C/c1ccccc1`, the IC50 (cells [1]) was > 29.9 µM (inactive), the EC50 (cells [2]) was > 29.9 µM (inactive) and the EC50 [3] was < 0.1 µM (active). For the same molecule, the EC50 [4] was > 60 µM (not active), the EC50 (cells [5]) was 0.112 µM (active) and the IC50 [6] was 1.67 µM (active). For the same molecule, the EC50 [7] was > 3.32 µM (active).
In the case of `CC1(C)N(O)CC(c2cccs2)=[N+]1[O-]`, the IC50 [8] is reported as > 100 µM (not active).
For `c1ccc(-n2ncc3c(NCc4ccco4)ncnc32)cc1`, the EC50 (cells [9]) was > 350 µM (not active), the EC50 (cells [10]) was > 350 µM (not active) and the IC50 [11] was 60.9 µM (not active).
With `C[C@H]1O[C@@H](OC2CC[C@]3(C=O)[C@H]4CC[C@]5(C)[C@@H](C6=CC(=O)OC6)CC[C@]5(O)[C@@H]4CC[C@]3(O)C2)CC2OC(C)(C)OC21` (stereo not given in full) the EC50 (BJ [12]) was 1.28 µM (inconclusive), the EC50 (BJ [13]) was 1.37 µM (inconclusive) and the CC50 (Vero [14]) was 0.1 µM (active). For the same molecule, the CC50 (Vero [15]) was < 0.039 µM (active), the EC50 [16] was 1.14 µM (active) and the IC50 (Vero [17]) was < 0.05 µM (active). For the same molecule, the EC50 (BJ [18]) was 1.01 µM (active).
For `NC(=O)C1=C[C@H](C2CCCCC2)C[C@H](OCc2ccc(CO)cc2)O1`, the EC50 [19] was 0.326 µM (active), the EC50 [20] was > 12 µM (not active) and the EC50 [21] was < 0.1 µM (inconclusive). The IC50 (Vero [17]) was > 25 µM (active) and the EC50 [22] was 0.558 µM (active).
With `O=C(CCN1C(=O)/C(=C\c2cccc(Br)c2)SC1=S)N1CCOCC1` the CC50 (Vero [14]) was > 25 µM (active) and the CC50 (Vero [15]) was 31.3 µM (active).
